Reference: ChEMBL document CHEMBL5236643, “Discovery and characterization of orally bioavailable 4-chloro-6-fluoroisophthalamides as covalent PPARG inverse-agonists” (Bioorg Med Chem, 2023)

Assays:
[1] = target: T1, Peroxisome proliferator-activated receptor gamma (Homo sapiens, UniProt P37231); assay: Inverse agonist activity at GST tagged human PPARgamma LBD (231 to 505 residues) expressed in Escherichia coli BL21(DE3) assessed as recruitment of fluorescein labeled corepressor NCOR2 Smrt-ID2 peptide to PPARgamma LBD incubated for 24 hrs by LanthaScreen TR-FRET assay
T1 sequence (P37231 whole entry): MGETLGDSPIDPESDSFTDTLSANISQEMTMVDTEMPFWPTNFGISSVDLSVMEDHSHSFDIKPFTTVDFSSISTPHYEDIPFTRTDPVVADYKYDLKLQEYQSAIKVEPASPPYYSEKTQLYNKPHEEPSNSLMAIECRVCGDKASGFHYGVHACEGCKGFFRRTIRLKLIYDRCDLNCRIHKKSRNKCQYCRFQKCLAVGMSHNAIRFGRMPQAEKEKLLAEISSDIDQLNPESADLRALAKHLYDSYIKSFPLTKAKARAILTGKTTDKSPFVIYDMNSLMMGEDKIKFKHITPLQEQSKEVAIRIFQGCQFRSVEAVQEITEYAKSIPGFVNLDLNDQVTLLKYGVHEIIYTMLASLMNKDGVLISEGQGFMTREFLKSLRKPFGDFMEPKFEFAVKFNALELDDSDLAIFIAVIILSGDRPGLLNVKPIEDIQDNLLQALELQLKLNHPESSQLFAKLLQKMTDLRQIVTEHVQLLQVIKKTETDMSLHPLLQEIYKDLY

[2] = target: T1, Peroxisome proliferator-activated receptor gamma; assay: Inverse agonist activity at human PPARgamma in human RT112/84 transfected with NLuc-fused FABP4 assessed as reduction in PPARgamma transactivation incubated for 6 to 18 hrs by Nano-Glo luciferase assay; type: cell-based
[3] = target: T2, Peroxisome proliferator-activated receptor alpha (Homo sapiens, UniProt Q07869); assay: Agonist activity at human PPARalpha expressed in CHO cells co-expressing GAL4-NHR-LBD assessed as transcriptional activation preincubated for 6 hrs followed by luciferin addition by luminescence method; type: cell-based
T2 sequence (Q07869 whole entry): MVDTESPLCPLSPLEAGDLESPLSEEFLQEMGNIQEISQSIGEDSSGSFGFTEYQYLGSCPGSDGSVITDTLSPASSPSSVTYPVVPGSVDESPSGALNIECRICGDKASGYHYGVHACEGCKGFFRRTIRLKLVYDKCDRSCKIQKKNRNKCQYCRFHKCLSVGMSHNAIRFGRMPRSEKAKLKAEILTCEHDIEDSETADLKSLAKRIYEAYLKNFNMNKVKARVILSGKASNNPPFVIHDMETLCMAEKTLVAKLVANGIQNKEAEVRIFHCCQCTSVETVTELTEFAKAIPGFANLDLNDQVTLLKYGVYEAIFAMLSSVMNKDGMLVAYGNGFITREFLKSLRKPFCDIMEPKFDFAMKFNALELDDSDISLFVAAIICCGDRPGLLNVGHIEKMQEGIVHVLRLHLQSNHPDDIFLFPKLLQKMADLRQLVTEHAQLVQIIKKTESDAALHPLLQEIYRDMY

[4] = target: T3, Peroxisome proliferator-activated receptor alpha (Homo sapiens) (UniProt Q07869); assay: Agonist activity at human PPARalpha expressed in CHO cells co-expressing GAL4-NHR-LBD assessed as transcriptional activation by measuring maximum efficacy preincubated for 6 hrs followed by luciferin addition by luminescence method; type: cell-based; conditions: filed as agonist
T3 sequence (whole entry): T2 sequence (Q07869 whole entry)

[5] = target: T4, Peroxisome proliferator-activated receptor delta (Homo sapiens, UniProt Q03181); assay: Inverse agonist activity at human PPARdelta expressed in CHO cells co-expressing GAL4-NHR-LBD assessed as transcriptional repression preincubated for 6 hrs followed by luciferin addition by luminescence method; type: cell-based
T4 sequence (Q03181 whole entry): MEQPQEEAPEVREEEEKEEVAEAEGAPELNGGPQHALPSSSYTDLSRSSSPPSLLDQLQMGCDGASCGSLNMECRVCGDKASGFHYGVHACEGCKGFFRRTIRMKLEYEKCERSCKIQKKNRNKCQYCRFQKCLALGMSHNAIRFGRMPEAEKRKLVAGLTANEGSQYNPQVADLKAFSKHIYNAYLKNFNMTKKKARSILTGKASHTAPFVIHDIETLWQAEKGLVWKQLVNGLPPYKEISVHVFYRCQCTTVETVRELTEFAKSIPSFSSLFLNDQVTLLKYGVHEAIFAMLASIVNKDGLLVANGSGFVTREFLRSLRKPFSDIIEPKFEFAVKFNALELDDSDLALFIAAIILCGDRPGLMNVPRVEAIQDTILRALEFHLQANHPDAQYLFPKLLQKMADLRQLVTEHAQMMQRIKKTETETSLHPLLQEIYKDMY

[6] = Antiproliferative activity against human UM-UC-9 assessed as inhibition of cell proliferation measured after 7 days by IncuCyte live-cell imaging assay; conditions: UM-UC-9, 168 h
[7] = Antiproliferative activity against human UM-UC-9 assessed as inhibition of cell proliferation by measuring maximum efficacy after 7 days by IncuCyte live-cell imaging assay; type: functional; conditions: UM-UC-9, 168 h, time 7 day

Row | Compound | EC50 [1] [nM] | IC50 [2] [nM] | also measured
1 | O=C(NCc1ccccc1)c1cc(Cl)cc(C(=O)Nc2ccccc2)c1 | > 5000 | > 5000 | 
2 | O=C(NCc1ccccc1)c1ccc(F)c(C(=O)Nc2ccccc2)c1 | > 5000 | > 5000 | 
3 | Cc1cccc(CNC(=O)c2ccc(Cl)c(C(=O)Nc3ccccc3)c2)c1 | 3000 | > 5000 | 
4 | O=C(NCc1ccc(Cl)cc1)c1ccc(Cl)c(C(=O)Nc2ccccc2)c1 | 7200 | > 5000 | 
5 | O=C(Nc1ccncc1)c1cc([N+](=O)[O-])ccc1Cl |  |  | IC50 [3]: 2950 nM; Emax [4]: 289%; IC50 [5]: > 5000 nM
6 | O=C(NCc1ccccc1)c1cc(C(=O)Nc2ccccc2)c(Cl)c(C(F)(F)F)c1 | 2200 | > 5000 | 
7 | Cc1ccccc1NC(=O)c1cc(C(=O)NCc2ccccc2)c(F)cc1Cl | 69 | 38 | IC50 [6]: 165 nM; Emax [7]: 26%
8 | Cc1cc(-c2nnco2)ccc1NC(=O)c1cc(C(=O)NCc2ccc(F)c(F)c2)c(F)cc1Cl | 49 |  | Emax [7]: 87%
